Values joined by “and” are separate entries in the source; they are usually repeats but may differ in a detail not shown here. Equal entries are not always repeated.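 A five-concentration, 48-hour dose response in 96-well plates underlies each endpoint, interpolated linearly between surrounding concentrations. GI50: concentration for 50% inhibition of growth. TGI marks complete inhibition of growth.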

Among the test systems are MOLT-4 leukemia; HL-60(TB) leukemia; NCI/ADR-RES ovarian; HS 578T breast; SF-539 CNS; NCI-H23 lung; ACHN renal; UACC-62 melanoma; MCF7 breast; SR leukemia.
Holding throughout (test): NCI anticancer screen, dose series, 48 h

Turning to `CCN(Cc1ccccc1OC)c1ccc(CO)c(Cl)c1`, the GI50 was 18.1 µM in the test with MOLT-4 leukemia; 11.8 µM with HL-60(TB) leukemia; 9.22 µM in the test on NCI/ADR-RES ovarian; 13.4 µM in the test with HS 578T breast; 14.4 µM in the test with SF-539 CNS; 8.96 µM with NCI-H23 lung. Moreover, the GI50 with ACHN renal is 14.1 µM; with UACC-62 melanoma, 0.223 µM; with MCF7 breast, 0.566 µM; with SR leukemia it was 8.53 µM. Moreover, the TGI stood at 46.2 µM in the test on MOLT-4 leukemia; 34.9 µM in the test on HL-60(TB) leukemia; 26.9 µM in the test on NCI/ADR-RES ovarian; 37.2 µM in the test with HS 578T breast; 27.8 µM in the test with SF-539 CNS; 29.9 µM with NCI-H23 lung. For the same compound, the TGI in the test on ACHN renal turned out to be 27.4 µM; in the test on UACC-62 melanoma, 1.79 µM; in the test on MCF7 breast it was 12.3 µM; with SR leukemia it was 40.9 µM.
As for `CCCCN(Cc1ccc(F)cc1)c1ccc(CO)c(Cl)c1`, the GI50 with MOLT-4 leukemia is 17.8 µM; with HL-60(TB) leukemia it was 14.1 µM; in the test with NCI/ADR-RES ovarian, 14.1 µM; in the test on HS 578T breast, 17.7 µM; with SF-539 CNS, 17.7 µM; with NCI-H23 lung, 11.8 µM. Further, the GI50 is 15.4 µM in the test on ACHN renal, 0.903 µM in the test with UACC-62 melanoma, 2.3 µM in the test with MCF7 breast and 14.6 µM in the test with SR leukemia. In addition, the TGI is 43.1 µM in the test with MOLT-4 leukemia; 34 µM in the test on HL-60(TB) leukemia; 29.3 µM in the test on NCI/ADR-RES ovarian; 40.9 µM in the test with HS 578T breast; 32.6 µM with SF-539 CNS; 26.3 µM in the test with NCI-H23 lung. For the same compound, the TGI in the test on ACHN renal is 29.7 µM; with UACC-62 melanoma, 4.84 µM; in the test with MCF7 breast, 15 µM; in the test on SR leukemia it was 34.7 µM.
Consider `OCc1ccc(-c2nn(Cc3ccccc3)c3ccccc23)o1`, for which the TGI with MOLT-4 leukemia was 62.2 µM and 37.4 µM; in the test on HL-60(TB) leukemia, 40.5 µM and 58.3 µM; with NCI/ADR-RES ovarian, 67.1 µM and 49.6 µM; in the test on HS 578T breast, > 69.9 µM and 42.4 µM; in the test with SF-539 CNS, 32.2 µM and 35.5 µM; with NCI-H23 lung, 58.8 µM and 50.8 µM. Also, the TGI with ACHN renal was 91.9 µM and 39.8 µM; in the test with UACC-62 melanoma, 16.4 µM and > 44.4 µM; in the test with MCF7 breast it was 24.8 µM and 57.1 µM; in the test with SR leukemia it was 45.2 µM and 39.6 µM. Further, the GI50 with HL-60(TB) leukemia was 15.6 µM and 19 µM; in the test on NCI/ADR-RES ovarian, 19.2 µM and 11.5 µM; in the test on HS 578T breast it was 17.8 µM and 15.9 µM; with SF-539 CNS, 16.2 µM and 18.6 µM; in the test with NCI-H23 lung, 19.2 µM and 20.9 µM; in the test on ACHN renal it was 19.8 µM and 16 µM. The GI50 was 0.52 µM and 3.41 µM with UACC-62 melanoma; 4.08 µM and 1.69 µM with MCF7 breast; 12 µM and 4.48 µM in the test with SR leukemia.
On to `CC(=O)O[C@@H]1CC2C(C)(C)CCCC2(C)C2=C1C(=O)C(C(C)C)=CC2=O` (some centres undefined), for which the GI50 in the test on MOLT-4 leukemia is 1.13 µM; in the test with HL-60(TB) leukemia, 0.744 µM; in the test on NCI/ADR-RES ovarian, 2.96 µM; in the test with HS 578T breast, 1.79 µM; with SF-539 CNS, 1.17 µM; in the test on NCI-H23 lung it was 1.87 µM. For the same compound, the GI50 with ACHN renal was 0.644 µM; in the test on UACC-62 melanoma it was 0.458 µM; with MCF7 breast, 1.05 µM; in the test on SR leukemia, 0.653 µM. Further, the TGI in the test with MOLT-4 leukemia was more than 100 µM; in the test with HL-60(TB) leukemia it was 4.28 µM; with NCI/ADR-RES ovarian it was more than 100 µM; in the test on HS 578T breast, more than 100 µM; in the test with SF-539 CNS, 4.05 µM; in the test on NCI-H23 lung it was 7.86 µM. Also, the TGI is 1.96 µM in the test with ACHN renal, 2.07 µM with UACC-62 melanoma, more than 100 µM in the test on MCF7 breast and more than 100 µM in the test on SR leukemia.
Take `COc1ccc2c3c(c(=O)n(C)c2c1OC)C=CC(C)(C)O3`: the TGI is 54.7 µM with MOLT-4 leukemia; 29.8 µM in the test on HL-60(TB) leukemia; 64.3 µM in the test with NCI/ADR-RES ovarian; 78.4 µM in the test with HS 578T breast; more than 100 µM in the test on SF-539 CNS; 84.9 µM in the test on NCI-H23 lung. Also, the TGI in the test with ACHN renal is 27.5 µM; in the test on UACC-62 melanoma, more than 100 µM; in the test with MCF7 breast, more than 100 µM; in the test on SR leukemia, 24.9 µM.
As for `O=C1/C(=C/c2ccc(O)cc2)COc2ccc(-c3ccccc3)cc21`, the GI50 is 1.62 µM in the test with MOLT-4 leukemia; 0.465 µM in the test with HL-60(TB) leukemia; 10.9 µM with NCI/ADR-RES ovarian; 3.79 µM in the test on HS 578T breast; 13.9 µM with SF-539 CNS; 12.4 µM in the test with NCI-H23 lung. Moreover, the GI50 is 12.3 µM with ACHN renal, 12.7 µM in the test on UACC-62 melanoma, 2.8 µM with MCF7 breast and 1.63 µM in the test on SR leukemia. The TGI in the test with MOLT-4 leukemia is more than 32.5 µM; with HL-60(TB) leukemia, more than 38.2 µM; in the test on NCI/ADR-RES ovarian, 53.9 µM; in the test with HS 578T breast, 24.3 µM; with SF-539 CNS, 27 µM; with NCI-H23 lung, 29.6 µM. In addition, the TGI in the test on ACHN renal is 25.1 µM; in the test with UACC-62 melanoma it was 25.6 µM; in the test on MCF7 breast it was 12.4 µM; in the test on SR leukemia it was more than 28.4 µM.
For the compound `O=C(CCl)N1c2ccccc2Sc2c1ccc1ccccc21`, the GI50 with MOLT-4 leukemia is 2.49 µM; in the test on HL-60(TB) leukemia it was 3.06 µM; in the test with NCI/ADR-RES ovarian, 2.74 µM; with HS 578T breast, 4.17 µM; in the test on SF-539 CNS, 2.08 µM; in the test with NCI-H23 lung, 2.2 µM. For the same compound, the GI50 is 1.83 µM with ACHN renal, 2.07 µM with UACC-62 melanoma, 2.52 µM with MCF7 breast and 2.4 µM in the test on SR leukemia. The TGI was more than 100 µM in the test with MOLT-4 leukemia; 8.98 µM in the test with HL-60(TB) leukemia; 6.55 µM in the test with NCI/ADR-RES ovarian; 43.9 µM with HS 578T breast; 4.81 µM with SF-539 CNS; 5.11 µM in the test on NCI-H23 lung. The TGI is 3.69 µM in the test on ACHN renal, 4.9 µM in the test with UACC-62 melanoma, 6.47 µM in the test on MCF7 breast and 9.55 µM in the test with SR leukemia.
`Clc1nc(Cl)c2c(ncn2C/C=C\Cn2cnc3c(Cl)nc(Cl)nc32)n1`: the GI50 with MOLT-4 leukemia was 1.42 µM; in the test on HL-60(TB) leukemia, 1.85 µM; with NCI/ADR-RES ovarian, 2.69 µM; in the test on HS 578T breast, 1.44 µM; with SF-539 CNS, 2.38 µM; with NCI-H23 lung, 1.72 µM. The GI50 with ACHN renal is 1.83 µM; in the test on UACC-62 melanoma, 1.83 µM; in the test on MCF7 breast it was 1.45 µM; with SR leukemia, 0.218 µM. Also, the TGI with MOLT-4 leukemia is 3.25 µM; with HL-60(TB) leukemia, more than 100 µM; with NCI/ADR-RES ovarian, 11.1 µM; in the test with HS 578T breast, 5.36 µM; with SF-539 CNS it was 5.46 µM; in the test with NCI-H23 lung, 3.93 µM. Also, the TGI was determined as 3.33 µM in the test with ACHN renal, 4.09 µM in the test with UACC-62 melanoma, 3.17 µM in the test on MCF7 breast and 0.813 µM in the test on SR leukemia.

For the origin of these results see PubChem BioAssay (NCI).
